Patent US8558016B2, “Polyphenol derivative and method for producing the same” (Kabaushiki Kaisha Riverson, priority 2009, dated 2013)

How the values were obtained:
PTP1B = PTP1B expression inhibitory effect in 3T3-L1 adipocytes, Western blotting; type: cell-based; details: for PTP1B expression inhibitory effect: in words, no time or concentration stated
Procedure: (§1) 3T3-L1 adipocytes can be allowed to grow and maintained in a 5% CO2 environment in high-glucose DMEM containing 50 U/ml penicillin, 50 μg/ml streptomycin, and 10% FCS. The 3T3-L1 cells were subcultured in a dish of 3.5 cm in diameter until confluent and then sufficiently differentiated into adipocytes by culture for another 2 days in the presence of insulin (10 μg/ml), dexamethasone ([…]), and IBMX (3-isobutyl-1-methylxanthine) (0.5 mM). Teadenol A (10 μM) or DMSO (vehicle control) was added to the sufficiently differentiated 3T3-L1 adipocytes, and each culture supernatant was collected after 8, 24, 32, and 48 hours. The amount of adiponectin secreted was determined by Western blotting method.
Teadenol A (10 μM) or DMSO (vehicle control) was added to the sufficiently differentiated 3T3-L1 adipocytes. After culture for 8, 24, 32, and 48 hours, the cells were collected, and the amount of PTP1B […] and the amount of α-tubulin were determined by Western blotting method.

3T3-L1 adipocytes = test: Adiponectin secretion promoting effect, Western blotting of culture supernatant; type: cell-based; details: for adiponectin secretion promoting effect: in words, no time or concentration stated
Procedure: as §1

[1] = Test of visceral fat and adiponectin functions (method not described); type: in vivo; details: in words

Row | SMILES | PTP1B expression inhibitory effect (PTP1B) | adiponectin secretion promoting effect (3T3-L1 adipocytes) | PTP1B expression inhibitory activity (PTP1B; 10 μM, 3T3-L1 adipocytes, statistically significant difference after 32 hours) | adiponectin secretion promoting activity (3T3-L1 adipocytes; 10 μM, 3T3-L1 adipocytes, statistically significant difference after 24 and 48 hours) | adiponectin [1] | visceral fat [1]
1 | C=C1C=C(C(=O)O)O[C@@H]2Cc3c(O)cc(O)cc3OC12 (some centres unmarked) [compound (1)] | confirmed to have | confirmed to have | – | – | – | –
2 | C=C1C=C(C(=O)O)O[C@@H]2Cc3c(O)cc(O)cc3O[C@@H]12 [Teadenol B, teadenol B] | effective | effective | – | – | – | –
3 | C=C1C=C(C(=O)O)O[C@@H]2Cc3c(O)cc(O)cc3O[C@H]12 [Teadenol A, teadenol A] | – | – | effective | effective | increasing adiponectin | decreasing visceral fat
